Results from patent US8853164B2, “Oligopeptide improving differentiation of osteoblasts” (Osstemimplant Co., Ltd., priority 2010, dated 2014).

Key:
[1] = tested on: BMP-specific receptor (BMPR-IA or BMPR-II); assay: BMP specific binding assay (ELISA, absorbance at 595 nm); conditions: PEP7 1 μg/well coated, BMPR-IA or BMPR-II 1 μg/well; relative to PEP111
Protocol: PEP7 (1 μg/well) was added to an ELISA plate and incubated at 4° C. for 12 hours. After PEP7 was coated on the plate, BMPR-IA or BMPR-II (1 μg/well) was added thereto and reacted at room temperature for 2 hours, to obtain a PEP7-BMP receptor complex. A primary antibody specific for a BMP receptor (0.5 μg BMR-IA, BMPR-II) was added to the complex and reacted at room temperature for 1 hour. A secondary antibody (BMPR-IA or BMPR-II-Fc Ab-HRP) was then added to the resulting mixture and reacted at room temperature for 1 hour. After ABTS was added to the resulting mixture and reacted at room temperature for 30 minutes, an absorbance of the resulting mixture was measure at 595 nm (FIG. 1, wherein PEP111(A) means the sequence whose 9th amino acid was alanine, PEP111(P) means the sequence whose alanine was replaced with proline, and PEP111(T) means the sequence whose alanine was replaced with threonine).

[2] = tested on: MG63 cells; assay: Initial cell differentiation ability assay (ALP activity); assay type: cell-based; conditions: differentiation culture medium, measured at Day 3 and 8, relative to PEP111
Protocol: (§1) The effect of the oligopeptide disclosed herein on osteoblastic differentiation was examined by comparing ALP (alkaline phosphatase) activity as an initial differentiation marker of osteoblasts. In order to compare the differentiation ability of osteoblasts, MG63 cells were distributed to a 24-well plate at a concentration of 1×10^5 cells and incubated for 1 day. Then, the cell was treated with each of the PEP7 oligopeptide disclosed herein, and positive controls BMP-2 and PEP111 in a differentiation culture medium and incubated in a 37° C. CO2 incubator. The medium was replaced with a fresh one at 2-day intervals, the ALP activity was measured at Day 3 and 8 after the cultivation (FIG. 2).

[3] = tested on: MG63 cells; assay: Late cell differentiation ability assay (osteocalcin production, human ELISA kit); assay type: cell-based; conditions: culture solution at Day 14, relative to PEP111
Protocol: as §1
(§2) The effect of the PEP7 oligopeptide on osteoblastic differentiation was examined by comparing the production amount of osteocalcin and osteopontin as a late differentiation marker of osteoblasts. The cultivation was carried out according to the same conditions as described above. At Day 14, the culture solution was harvested, and the amount of osteocalcin and osteopontin therein was measured by using a human ELISA kit (FIGS. 3 and 4).

[4] = tested on: MG63 cells; assay: Late cell differentiation ability assay (osteopontin production, human ELISA kit); assay type: cell-based; conditions: culture solution at Day 14, relative to PEP111
Protocol: as §1, §2

[5] = tested on: MG63 cells; assay: Calcification ability assay (Alizarin red S staining); assay type: cell-based; conditions: Day 14, Alizarin red S staining, relative to PEP111
Protocol: as §1
In order to examine whether the oligopeptide disclosed herein can successfully induce osteogenic differentiation, extracellular matrix calcification was observed. The cultivation was carried out according to the same conditions as described above. At Day 14 and 21, the culture solution was harvested and subjected to Alizarin red S staining (FIG. 5).

What does the source list for KIPKPSSVPTELSAISMLYL (PEP7)?
binding affinity to a BMP-specific receptor, higher than PEP111 [1]: about 23%; ALP (alkaline phosphatase) activity, higher than PEP111 [2]: 20%; osteocalcin production, more than PEP111 [3]: ≥ 14%; osteopontin production, more than PEP111 [4]: ≥ 21%; calcification ability, higher than PEP111 [5]: about 19%
